Test results: patent publication US7375080B1, “Immobilized lactoferrin (Im-LF) antimicrobial agents and uses thereof” (priority 1999, dated 2008)
Like-named read-outs stand apart in the source and are kept apart here.

How the values were obtained:
[1] = tested on: E. coli serotype O157:H7 (strain ATCC43895); format: cell-based
[2] = tested on: E. coli O157:H7 strain ATCC43895; experiment: Microbial adhesion assay: detachment of 3H-thymidine labeled bacteria from beef tissue by wash; format: cell-based

## O=C(O)CC(O)(CC(=O)O)C(=O)O [0.001 M citric acid, citric acid]
[1]
  GROWTH (%): 103%

## O=C([O-])O.[Na+] [0.01 M sodium bicarbonate, sodium bicarbonate]
[1]
  GROWTH (%): 112%

## [Cl-].[Na+] [0.1 M sodium chloride, sodium chloride]
[1]
  GROWTH (%): 100%

## CC(O)C(=O)O (stereo not drawn) [Lactic acid (2%), Lactic acid]
[2]
  % BACTERIAL CELLS DETACHED IN 1-MINUTE: 68%
[2]; Lean tissue (beef)
  % BACTERIAL CELLS DETACHED IN 1-MINUTE: 75%
[2]; Surface tissue (neck) (beef)
  % BACTERIAL CELLS DETACHED IN 1-MINUTE: 62%
